Data published in US6762052B1, “DNA sequence encoding flavin-containing monooxygenase” (priority 1993, dated 2004).
Entries after “also recorded” stand apart in the source; their conditions may differ.

Target: T1, adult human liver flavin-containing monooxygenase (form 3) (Homo sapiens, UniProt P31513, E158K)
T1 sequence (P31513 1-532 E158K): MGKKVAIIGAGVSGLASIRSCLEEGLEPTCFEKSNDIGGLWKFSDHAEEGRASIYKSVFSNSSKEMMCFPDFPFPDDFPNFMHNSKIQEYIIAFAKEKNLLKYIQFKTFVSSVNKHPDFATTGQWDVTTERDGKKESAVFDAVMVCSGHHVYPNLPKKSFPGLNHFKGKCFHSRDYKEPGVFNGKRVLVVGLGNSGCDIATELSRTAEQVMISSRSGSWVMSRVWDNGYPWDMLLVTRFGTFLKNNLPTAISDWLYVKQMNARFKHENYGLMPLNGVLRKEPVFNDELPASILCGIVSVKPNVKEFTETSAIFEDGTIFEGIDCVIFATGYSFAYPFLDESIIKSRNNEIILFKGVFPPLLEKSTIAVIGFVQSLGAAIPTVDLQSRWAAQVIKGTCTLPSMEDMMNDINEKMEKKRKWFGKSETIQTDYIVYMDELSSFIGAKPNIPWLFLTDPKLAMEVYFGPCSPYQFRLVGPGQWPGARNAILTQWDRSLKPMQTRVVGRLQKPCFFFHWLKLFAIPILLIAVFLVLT
Test: N- and S-oxygenation by cDNA-expressed HLFMO 3 (solubilized protein from E. coli transformed with pTrcHLFMO 3), HPLC
Method: In all cases examined, product formation was directly determined by HPLC analysis of organic extracts.
Competent NM522 Escherichia coli cells were transformed with the pTrc HLFMO 3 plasmid. […] After inoculation with a fresh overnight culture of NM522 containing pTrcHLFMO 3, the culture was grown at 37° C. until Abs600 was approximately 0.5 absorbance units. Finally, IPTG (0.8 mM) was added to the culture to induce expression of protein and the culture was left to grow overnight at 37° C.
The bacterial pellet was resuspended in 5 volumes of 50 mM potassium phosphate buffer (pH 8.4) containing 1% Triton X-100, 0.1% L-, α-phosphatidylcholine (L-α-lecithin) from egg yolk, 500 μM PMSF, and 1 mM EDTA. The mixture was sonicated and then centrifuged to remove cellular debris. As a control, bacterial lysate extracts from IPTG-induced pTrc99A-transformed NM522 cells (i.e., pTrc99A without the HLFMO 3 cDNA insert) were prepared under the same conditions.
Human liver samples were obtained from the Department of Surgery (UCSF) and with a protocol from the Medical College of Wisconsin (S. Wrighton).
A typical incubation mixture (final volume 0.25 ml) contained hepatic microsomes (0.4 mg of protein) or bacterial lysate (2.3 mg of protein), NADP^+ (0.5 mM), glucose-6-phosphate (2.0 mM), glucose-6-phosphate dehydrogenase (1 IU), DETAPAC (0.8 mM) and potassium phosphate buffer (50 mM, pH 8.4). Reactions were initiated by the addition of substrate and terminated at designated times by the addition of three volumes of cold dichloromethane, mixed thoroughly and centrifuged to separate the aqueous and organic fractions. N- and S-oxide metabolic products in the resulting organic extracts were separated and quantified by HPLC. […] Thiobenzamide and thiobenzamide S-oxide were quantified with this same, HPLC system employing a mobile phase of methanol/acetonitrile/60% perchloric acid (20:80:0.016, v/v) which gave retention volumes of 2.7 and 7.0 ml, respectively. […] The major metabolites formed in the incubations were also subjected to mass spectral analysis after extraction of isolated HPLC fractions.
RPLC of the S-oxide diastereomers with a Chiracel OT chiral analytical column (25 cm×0.15 cm inner diameter, Daicel Chemical Co., New York, N.Y.) was accomplished with a Beckman system, Kratos UV detector (240 nm) and a Hewlett Packard Integrator. […] Quantification was accomplished by comparing integrated HPLC peak areas after taking into account the difference in the extinction coefficients at 240 nm. Likewise, the cis and trans S-oxide diasteromers of (+)- and (−)-2-methyl-1,-benzodithiole were separated with a Chiracel OT chiral analytical column.

CN(C)CCCCCN1c2ccccc2Sc2ccc(C(F)(F)F)cc21 [Compound 5]
N-oxide formation, Expressed HFLMO (0.1 mM substrate, mean of 5 determinations ± SD): 200.0 ± 45.7 pmol/min/mg of protein
N-oxygenase activity in the pellet (100,000×g pellet): 0.043 nmol/min/mg of protein
share of N-oxygenase activity in the pellet (100,000×g pellet): 16%
share of N-oxygenase activity in the supernatant fraction (100,000×g supernatant): 84%
N-oxygenase activity in the supernatant fraction (100,000×g supernatant of solubilized recombinant HLFMO 3 protein): 0.23 nmol/min/mg of protein
Vmax, Expressed HLFMO (N- or S-oxide formation, for the 4-bromophenyl-1,3-oxathiolanes formation of the trans S-oxide): 0.023 nmol/min/mg of protein
substrate activity for human liver microsomes and expressed HLFMO 3, in words (human liver microsomes and solubilized protein from E. coli transformed with pTrcHLFMO 3): better substrates; also recorded: excellent substrates
Km (read-out: Km, Expressed HLFMO, N- or S-oxide formation, for the 4-bromophenyl-1,3-oxathiolanes formation of the trans S-oxide): 64.6 µM
